Source: PubChem BioAssay AID434954 (Broad Institute, 2010)
pIC50: −log10 of the molar value. Activity calls are given as the source filed them.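 Rule for the calls: active = IC50 at or below a set limit above the highest tested dose; inconclusive = flat curve with 30 to 70% inhibition, or poor fit; inactive = the rest.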

These compounds were tested against Glycogen synthase kinase-3 beta (Homo sapiens) (UniProt P49841) (assay: concentration-response blocking of human GSK3B – biochemical, luminescence, cell-free homogeneous, retest, dose response (AID 434954)). Conditions: recombinant GSK3beta, ADP-Glo luminescence, 60 min.
Chain of Glycogen synthase kinase-3 beta (Homo sapiens) (P49841 whole entry, looked up): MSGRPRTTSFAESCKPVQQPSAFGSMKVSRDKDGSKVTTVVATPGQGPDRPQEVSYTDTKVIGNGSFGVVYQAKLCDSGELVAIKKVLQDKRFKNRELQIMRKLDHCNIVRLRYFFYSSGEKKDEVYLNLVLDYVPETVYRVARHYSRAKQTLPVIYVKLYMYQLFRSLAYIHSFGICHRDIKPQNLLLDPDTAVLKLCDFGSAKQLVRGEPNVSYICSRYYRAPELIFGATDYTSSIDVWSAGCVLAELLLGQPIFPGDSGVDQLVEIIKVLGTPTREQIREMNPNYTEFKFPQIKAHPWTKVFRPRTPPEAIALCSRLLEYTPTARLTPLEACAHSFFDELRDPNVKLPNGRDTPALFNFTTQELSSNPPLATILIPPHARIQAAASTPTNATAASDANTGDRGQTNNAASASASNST
For COc1ccc(C2C3=C(CCCC3=O)Nc3n[nH]c(C)c32)cc1OC (configuration not stated), the IC50 was > 30 µM (inactive). CCc1ccc(/C=N/Nc2ncnc3nc[nH]c23)cc1 showed a pIC50 of 4.58. With C/C(=N\Nc1nccnc1Cl)c1ccc(Br)cc1 the IC50 was > 30 µM (inactive). CC1(C)CC(=O)C2=C(C1)Nc1[nH]c(=S)[nH]c(=O)c1C2c1ccccc1 (configuration not stated) was tested, and the IC50 was > 30 µM (inactive). CCN(CC)CCN1C(=O)C(=O)/C(=C(/O)c2ccc(S(=O)(=O)N3CCOCC3)cc2)C1c1ccccc1 (configuration not stated) was tested, and the IC50 was > 30 µM (inactive). CCCC1=C(C(=O)OCC)C(c2ccco2)n2ncnc2N1 (configuration not stated) was tested, and the pIC50 was 4.76. With COc1cc(C2C3=C(CC(C)(C)CC3=O)Nc3c2c(=O)[nH]c(=O)n3Cc2ccccc2)ccc1O (configuration not stated) the IC50 was > 30 µM (inactive). For CCc1ccccc1N1C(=O)CC(N2CCc3ccccc32)C1=O (configuration not stated), the IC50 was > 30 µM (inactive). With Clc1ccc(/C=N/Nc2ncnc3nc[nH]c23)cc1 the pIC50 was 4.69. In the case of O=C(O)Cn1cc(/C=N/Nc2ccc([N+](=O)[O-])cn2)c2ccccc21, the pIC50 was 5.08. Compound O=C(O)c1ccc(/C=N/Nc2ccc(C(F)(F)F)cn2)cc1 has a pIC50 of 4.69. COc1cc(C2C(C#N)=C(C)NC3=C2C(=O)CC(C)(C)C3)ccc1O (configuration not stated) was tested, and the IC50 was > 30 µM (inactive). COc1cc(C2C(C(=O)c3cccs3)=C(O)C(=O)N2CCN2CCOCC2)ccc1OCCC(C)C (configuration not stated) was tested, and the IC50 was > 30 µM (inactive). In the case of Nc1ncnc2c1ncn2C1OC(COP(=O)(O)O)C(O)C1O (configuration not stated), the IC50 was > 30 µM (inactive). Compound CCCCOC(=O)C1=C(C)Nc2ncnn2C1c1cccc(OC)c1OC (configuration not stated) has a pIC50 of 5.37. For CSc1nc2c(c(=O)[nH]1)C(c1ccccc1)C1=C(CC(C)(C)CC1=O)N2 (configuration not stated), the IC50 was > 30 µM (inactive). N=C(N)N=Nc1c(O)[nH]c2ccc(Br)cc12 gave a pIC50 of 4.50. Cc1ccc(/C=N/Nc2ncnc3nc[nH]c23)cc1 was tested, and the pIC50 was 4.52. In the case of COc1cc(/C=N/Nc2ccc([N+](=O)[O-])cn2)cc(OC)c1O, the pIC50 was 5.27. In the case of COc1ccc(-c2c(C)n([O-])c(C)c(C)[n+]2=O)cc1, the IC50 was > 30 µM (inactive). With Nc1ncnc2c1ncn2[C@@H]1O[C@H](CO)[C@@H](O)[C@@H]1O the IC50 was > 30 µM (inactive). Cc1[nH]nc2c1C(c1ccc(O)cc1)C1=C(CC(C)(C)CC1=O)N2 (configuration not stated) was tested, and the pIC50 was 5.69. For CC1=C(C(=O)Nc2ccccc2F)C(c2ccsc2)C2=C(CC(C)(C)CC2=O)N1 (configuration not stated), the IC50 was > 30 µM (inactive). With Nc1nc(F)nc2c1ncn2[C@@H]1O[C@H](CO)[C@@H](O)[C@@H]1O the IC50 was > 30 µM (inactive). In the case of COc1cc(-c2[nH]nc3c2C(c2ccco2)C(C#N)=C(N)O3)cc(OC)c1OC (configuration not stated), the pIC50 was 5.07. For O=C1CC(c2c[nH]c3ccccc23)C(=O)N1c1ccccc1 (configuration not stated), the IC50 was > 30 µM (inactive). In the case of Cc1c(C#N)c(O)[nH]c(=O)c1N=Nc1ccc(S(N)(=O)=O)cc1, the pIC50 was 6.04. For Cc1c(C=Nc2ccc(S(=O)(=O)CCO)cc2)c(O)[nH]c(=O)c1C#N, the IC50 was > 30 µM (inactive). Work on O=C(O)CCn1cc(/C=N/O)c(-c2cccc([N+](=O)[O-])c2)n1 yielded a pIC50 of 5.13. In the case of COc1ccc(COC(=O)C2=C(C)NC(=O)NC2c2ccc(O)c(OC)c2)cc1 (configuration not stated), the IC50 was > 30 µM (inactive). With CCOC(=O)C1=C(C)Nc2ncnn2C1c1cc(Br)ccc1F (configuration not stated) the pIC50 was 4.62. In the case of COc1ccc(-c2nn(-c3ccccc3)cc2/C=N/O)cc1, the pIC50 was 6.36. With CCOC(=O)C1=C(C)Nc2ncnn2C1c1ccc(N(C)C)cc1 (configuration not stated) the IC50 was > 30 µM (inactive). CN=C(C)/C(C(=O)OC)=C(/O)c1ccc(Cl)cc1Cl was tested, and the IC50 was > 30 µM (inactive). With O=C(O)c1ccc(-c2ccc(/C=N/Nc3ccc([N+](=O)[O-])cc3)o2)cc1 the IC50 was > 30 µM (inactive). Work on Cc1[nH]nc2c1C(c1cccs1)C1=C(CC(C)(C)CC1=O)N2 (configuration not stated) yielded a pIC50 of 5.86. For O=C(O)CC1S/C(=N/N=C/c2ccc(-c3ccc(Cl)c([N+](=O)[O-])c3)o2)NC1=O (configuration not stated), the IC50 was > 30 µM (inactive). In the case of COc1ccc(/C=N/Nc2ccc([N+](=O)[O-])cc2)cc1O, the IC50 was > 30 µM (inactive). With CCOC(=O)C1=C(C(F)(F)F)Nc2ncnn2C1c1cc(OC)ccc1OC (configuration not stated) the IC50 was > 30 µM (inactive). For COc1ccc(-c2nn(-c3ccccc3)cc2/C=N/Nc2ccccn2)cc1, the IC50 was > 30 µM (inactive). For COc1ccc(C2C3=C(CC(C)(C)CC3=O)Nc3n[nH]c(C)c32)cc1 (configuration not stated), the pIC50 was 4.55. For O=C(O)c1cccc(-c2ccc(/C=N/Nc3ccc([N+](=O)[O-])cc3)o2)c1, the IC50 was > 30 µM (inactive). CSc1nsc(/C=C/Nc2ccc(Cl)cc2)c1C#N was tested, and the IC50 was > 30 µM (inactive). For COc1ccc(OC)c(N=c2oc3cc(O)ccc3cc2C(N)=O)c1, the pIC50 was 4.93. In the case of CCOc1ccc(/C=C2/C(=N)N3OC(C)=CC3=NC2=O)cc1OC, the IC50 was > 30 µM (inactive). O=[N+]([O-])c1cc(/C=N\O)ccc1Oc1ccc(F)cc1 showed a pIC50 of 4.64. In the case of COc1ccc(-c2nn(-c3ccccc3)cc2/C=N/O)cc1OC, the pIC50 was 5.40. For Oc1ccc(/C=N/Nc2ncnc3nc[nH]c23)cc1, the IC50 was > 30 µM (inactive). With CC1=C(C(=O)OCC2CCCO2)C(c2ccsc2)C2=C(CC(C)(C)CC2=O)N1 (configuration not stated) the IC50 was > 30 µM (inactive). For CCOC(=O)C1=C(C)Nc2ncnn2C1/C=C/c1ccccc1 (configuration not stated), the IC50 was > 30 µM (inactive). C(=N\Nc1ncnc2nc[nH]c12)/c1cccs1 gave a pIC50 of 4.71. Fc1ccccc1/C=N/Nc1ncnc2nc[nH]c12 was tested, and the pIC50 was 4.95.
